We go through one compound from patent EP4566594A1, “LIPID NANOPARTICLES COMPRISING LONG-CHAIN CERAMIDE AND COMPOSITION FOR CELL DEATH COMPRISING SAME” (Croda Korea Limited, priority 2022, dated 2024).

Data set [1] is described as follows: Solubility of C18-ceramide itself in aqueous solution. Type of data set: physicochemical. The conditions noted are these: without lipid nanoparticles.
The test system of the next data set is MDA-MB-468 cells. The data set can be described thus: Cell viability, WST-8 reagent, absorbance at 450nm. Type of data set: cell-based. The conditions noted are these: ceramide alone dispersed in aqueous solution in the same amount as in Examples 1 and 2, column purified. As for the experimental part:
(§1) MDA-MB-231 and MDA-MB-468 cells were cultured at 37°C under 10% fetal bovine serum (FBS) and ATCC modified RPMI medium (Gibco) supplemented with 1% penicillin/streptomycin, 5% CO2.
(§2) For experiments, lipid nanoparticles prepared at each concentration of C18-ceramide were respectively treated (the number of particles: 4.5 x 10^8 ± 2.05 x 10^8) to MDA-MB-231 and MDA-MB-468 cells which were inoculated into a 96-well plate (1.5 x 10^3 cells/well). After 24 hours of incubation, WST-8 reagent (Dojindo) was added to the medium at 37°C for 1 hour. Absorbance was measured at 450nm using a microplate reader (BioTek). Thereafter, cell viability was confirmed by measuring absorbance every 24 hours.
In addition, the cell viability of MDA-MB-468 cells was reduced to 53% when lipid nanoparticles of 5 mM C18-ceramide were treated (FIG. 9b).
On the technique in general: Tetrazolium assays rely on reduction of a dye to a coloured formazan, in cell work by metabolically active cells.

For another data set, the system named is MDA-MB-231 cells. The data set can be described thus: Cell viability, WST-8 reagent, absorbance at 450nm. The format is cell-based. As to conditions: ceramide alone dispersed in aqueous solution in the same amount as in Examples 1 and 2, column purified. As for the experimental part: as §1, §2
The subject of data set [2] is apoptosis-related proteins (BAX, BAD, BCL2, and cleaved caspase3). Nature of the data set: Western blotting of apoptosis-related proteins in MDA-MB-468 cells. Type of data set: cell-based. As to conditions: ceramide alone dispersed in aqueous solution in the same amount as in Examples 1 and 2, column purified. As to the method: MDA-MB-468 cells were cultured in ATCC modified RPMI medium (Gibco) supplemented with 10% fetal bovine serum (FBS) and 1% penicillin/streptomycin at 37°C under 5% CO2.
For experiments, MDA-MB-468 cells were seeded onto 60 mm^2 cell culture plates (1.3 x 10^6 cells/plate). After 24 hours, LNP prepared at different concentrations of C18-ceramide was calculated and added to 2.5 mL opti-MEM medium per well such that 2.48 x 10^11±2.75 x 10^10 particles were included in the medium. The medium containing LNP was treated and incubated at 37°C for 24 hours.
Thereafter, the cells were collected, and western blotting was performed. For this purpose, MDA-MB-468 cells treated with LNP were lysed in RIPA buffer containing a protease inhibitor and a phosphatase inhibitor (Sigma). Total cell lysates were quantified using the BCA protein assay kit (Thermo Scientific). Next, the cell lysate (50 µg) was loaded on a 4-15% gradient SDS-PAGE gel (Biorad) under denaturing conditions and transferred to a PVDF membrane (iBlot2 Dry Blotting System, Thermo Scientific). […]
The secondary antibody conjugated with HRP was reacted at room temperature for 2 hours, and then the membrane was treated with Western ECL, and the luminescence image was analyzed using LAS500 (GE Healthcare), and the results are shown in FIG. 10.
In general terms: Immunoblotting shows a protein as a band on a membrane.

`CCCCCCCC/C=C\CCCCCCCC(=O)N[C@@H](CO)[C@H](O)[C@H](O)CCCCCCCCCCCCCC` (stereo in doubt) [C18-ceramide, N-Oleoyl-phytosphingosine]: the “solubility in an aqueous solution” value in data set [1] was “insoluble”. The cell survival rate result in the data set with MDA-MB-468 cells and in the data set with MDA-MB-231 cells was “no change” in each case. In data set [2], the antitumor-related protein expression result was “no change”.
